Test results: PubChem BioAssay (NCI)
Where “and” joins values, the source holds several entries; their conditions need not be identical. Identical values can stand only once.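 In this assay, cells in 96-well plates receive the compound at five concentrations for 48 hours. Endpoints are linearly interpolated between the surrounding concentrations. GI50 marks 50% less growth. The concentration for full growth arrest is given as TGI.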

How the values were obtained:
Assay in all cases: DTP human tumour cell line panel, 48 h
KM12 colon = test system: KM12 colon
SK-OV-3 ovarian = test system: SK-OV-3 ovarian
SN12C renal = test system: SN12C renal
EKVX NSCLC = test system: EKVX NSCLC
IGROV1 ovarian = test system: IGROV1 ovarian
HCT-116 colon = test system: HCT-116 colon
SNB-19 CNS = test system: SNB-19 CNS
NCI-H23 lung = test system: NCI-H23 lung
OVCAR-3 ovarian = test system: OVCAR-3 ovarian
HCT-15 colon = test system: HCT-15 colon
SF-268 CNS = test system: SF-268 CNS
HOP-92 NSCLC = test system: HOP-92 NSCLC
MOLT-4 leukemia = test system: MOLT-4 leukemia
SF-539 CNS = test system: SF-539 CNS
A549 NSCLC = test system: A549 NSCLC

Compound | TGI (KM12 colon) | TGI (SK-OV-3 ovarian) | TGI (SN12C renal) | TGI (EKVX NSCLC) | TGI (IGROV1 ovarian) | TGI (HCT-116 colon) | TGI (SNB-19 CNS) | GI50 (NCI-H23 lung) | TGI (NCI-H23 lung) | GI50 (OVCAR-3 ovarian) | TGI (OVCAR-3 ovarian) | TGI (HCT-15 colon) | TGI (SF-268 CNS) | TGI (HOP-92 NSCLC) | GI50 (MOLT-4 leukemia) | TGI (MOLT-4 leukemia) | GI50 (SF-539 CNS) | TGI (SF-539 CNS) | GI50 (A549 NSCLC) | TGI (A549 NSCLC)
Cc1c(F)c(N)c2c(=O)cc(-c3ccc(NC(=O)[C@@H](N)CCCCN)c(F)c3)oc2c1F | 24.8 µM and 22.4 µM | 31.6 µM and 32.6 µM | 31.7 µM and 32.7 µM | 28.4 µM and 22.6 µM | 19.5 µM and 18.1 µM | 21.5 µM and 22.1 µM | > 78.7 µM and 49.5 µM | 5.61 µM and 15.4 µM | 23.3 µM and 37.5 µM | 0.508 µM and 0.249 µM | 20.7 µM and 14.8 µM | 30.4 µM and 30.3 µM | 34.7 µM and 39.6 µM | 68.5 µM and 39.8 µM | 3.3 µM and 1.38 µM | 15.1 µM and 5.79 µM | 17.1 µM and 5.78 µM | 33.3 µM and 13.6 µM | 3.03 µM and 0.59 µM | 31 µM and 18.4 µM
CN(C)/C=C/c1nnnn1-c1ccc(I)cc1 | 36.7 µM | 53.3 µM | > 100 µM | 51.3 µM | 38 µM | 23.5 µM | 59.2 µM |  | 56.1 µM |  | 54.5 µM | 54.4 µM | 51 µM | 34.7 µM |  | 34.1 µM |  | 42.5 µM |  | > 100 µM
Nc1ncc(CN2CCOCC2)c(-c2ccccc2O)n1 | > 100 µM | > 100 µM | > 100 µM | > 100 µM | > 100 µM | > 100 µM |  |  | > 100 µM |  | > 100 µM | > 100 µM | > 100 µM | > 100 µM |  | > 100 µM |  | > 100 µM |  | > 100 µM
CCCCc1ccc(Nc2nc(N)c3ncn(COCCO)c3n2)cc1 | > 100 µM | 26.9 µM | > 100 µM | > 100 µM | 60.8 µM | 62.2 µM | > 100 µM |  | 56.3 µM |  | 40.3 µM | 38.6 µM | > 100 µM | 45.1 µM |  | > 100 µM |  | 60.6 µM |  | > 100 µM
COc1cc(-c2oc(C=Nc3ccccc3)c([N+](=O)[O-])c2-c2ccc(O)c(OC)c2)ccc1O | > 85.4 µM | > 64.7 µM | > 74.4 µM | > 73.9 µM | 52.5 µM | > 68.5 µM | 80.1 µM |  | 33.9 µM |  | > 100 µM | 42.3 µM | 73.7 µM | > 51.9 µM |  | > 84.7 µM |  | 42.9 µM |  | > 87.2 µM
O=C(OC(/C=C/c1ccccc1)P1(=O)N(Cc2ccccc2)[C@@H]2CCCC[C@H]2N1Cc1ccccc1)c1ccccc1 (stereo partly specified) | > 100 µM | > 100 µM | > 100 µM | > 100 µM | > 25.6 µM | > 100 µM | > 100 µM |  | > 31.5 µM |  | > 100 µM | > 100 µM | > 100 µM | 8.08 µM |  | 6.47 µM |  | > 100 µM |  | > 100 µM
COc1cc(/C=C2\CC3C4CC[C@H]5C[C@@H](O)CC[C@]5(C)C4CC[C@]3(C)C2=O)cc(OC)c1OC (stereo partly specified) | 73.7 µM | 52.9 µM | 95.3 µM | > 100 µM | > 100 µM | 43.6 µM | > 100 µM |  | > 100 µM |  |  | > 100 µM | > 100 µM | > 100 µM |  | 69.5 µM |  | 98.2 µM |  | > 100 µM
C/C(=N/NC(=S)NCCc1ccccn1)c1cnccn1 | > 100 µM | 70.5 µM | 74.7 µM | > 100 µM | > 100 µM | > 100 µM | > 100 µM |  | > 100 µM |  | > 100 µM |  | > 100 µM | > 100 µM |  | 41.4 µM |  |  |  | > 100 µM
